According to patent US11504380B2, “Method of treatment of cirrhosis” (INVENTIVA, priority 2019, dated 2022):

What was measured:
Format in all cases: in vivo, Sprague Dawley rats
[1] = test system: rat model of cirrhosis induced by the administration of thioacetamide (TAA); assay: Liver tissue mRNA expression by qPCR in TAA-induced cirrhotic rats; conditions: TAA-exposed rats, 100 mg/kg
From the text: (§1) Lanifibranor has been assessed in a rat model of cirrhosis induced by the administration of thioacetamide (TAA), which administration leads to the development of fibrosis in the early time points and then of cirrhosis in the late time points, turning for the majority of the animals to decompensated cirrhosis. Sprague Dawley rats (12-15 rats per groups) were intraperitoneally administered TAA (twice a week) for a period of twelve weeks to ensure reaching decompensated cirrhosis. At the end of this period, a TAA detoxification period of four days was observed. The rats were then orally administered for two weeks with either lanifibranor at 100 mg/kg/day in vehicle (methylcellulose 1%+poloxamer-188 0.1%), or with vehicle alone (control). At the end of the two weeks of treatment in vivo systemic and hepatic hemodynamics were determined and rats were then sacrificed, and plasma samples and liver tissue were harvested. RNA was extracted from liver tissue using Trizol (Life Technologies), and quantified with the help of a NanoDrop spectrophotometer. Reverse transcription was carried out following QuantiTect reverse transcription kit (Qiagen). qPCR was performed using PowerUp SYBR Green Master Mix (Thermo Fisher) and specific primers.

[2] = test system: rat model of cirrhosis induced by the administration of thioacetamide (TAA); assay: AST protein content in plasma of TAA-induced cirrhotic rats; conditions: TAA-exposed rats, 100 mg/kg, vs vehicle, p<0.005 (FIG. 8)
From the text: as §1, with “harvested.” for “harvested. RNA was extracted from liver tissue using Trizol (Life Technologies), and quantified with the help of a NanoDrop spectrophotometer. Reverse transcription was carried out following QuantiTect reverse transcription kit (Qiagen). qPCR was performed using PowerUp SYBR Green Master Mix (Thermo Fisher) and specific primers.”

[3] = test system: rat model of cirrhosis induced by the administration of thioacetamide (TAA); assay: Liver tissue protein levels by Western blot in TAA-induced cirrhotic rats; conditions: TAA-exposed rats, 100 mg/kg, vs vehicle
From the text: (§2) Lanifibranor has been assessed in a rat model of cirrhosis induced by the administration of thioacetamide (TAA), which administration leads to the development of fibrosis in the early time points and then of cirrhosis in the late time points, turning for the majority of the animals to decompensated cirrhosis. Sprague Dawley rats (12-15 rats per groups) were intraperitoneally administered TAA (twice a week) for a period of twelve weeks to ensure reaching decompensated cirrhosis. At the end of this period, a TAA detoxification period of four days was observed. The rats were then orally administered for two weeks with either lanifibranor at 100 mg/kg/day in vehicle (methylcellulose 1%+poloxamer-188 0.1%), or with vehicle alone (control). At the end of the two weeks of treatment in vivo systemic and hepatic hemodynamics were determined and rats were then sacrificed, and plasma samples and liver tissue were harvested. Triton lysis buffer was used for protein extraction of liver tissue samples. Proteins were separated by molecular weight by electrophoresis using a sodium dodecylsulphate polyacrylamide gel, and transferred to a nitrocellulose membrane (Western blot).

[4] = test system: rat model of cirrhosis induced by the administration of thioacetamide (TAA); assay: Systemic and hepatic hemodynamics, ascites and body/organ weights in TAA-induced cirrhotic rats; conditions: for IHVR (intrahepatic resistance) / PBF (portal blood flow) / PP (portal pressure): 100 mg/kg/day
From the text: as §2, with “The hemodynamics measurements were obtained as follow: mean arterial pressure (MAP) and heart rate (HR) were measured by cannulating the femoral artery; portal pressure (PP)” for “Triton lysis buffer”, “measured” for “used for protein extraction of liver tissue samples. Proteins were separated”, “cannulating the ileocolic vein, both with” for “molecular weight by electrophoresis using”, “heparinized p50 catheter (Portex) connected” for “sodium dodecylsulphate polyacrylamide gel, and transferred”, “pressure probe; portal blood flow (PBF) was determined with the help of specific non-constrictive perivascular ultrasonic transit-time flow probe (Transonic Systems Inc.).” for “nitrocellulose membrane (Western blot).”

[5] = test system: rat model of cirrhosis induced by the administration of thioacetamide (TAA); assay: Liver histology (Sirius Red collagen staining) and electron microscopy of sinusoidal fenestrae in TAA-induced cirrhotic rats; conditions: TAA-exposed rats, 100 mg/kg
From the text: as §2, with “Liver tissue samples” for “Triton lysis buffer was used”, “histology” for “protein extraction of liver tissue samples. Proteins”, “fixed in 4% formaldehyde (Sigma), embedded in paraffin, sectioned and stained with 0.1% Sirius Red in picric acid aqueous solution (Sigma). Sinusoidal fenestrae were analyzed” for “separated”, “electronic microscopy.” for “molecular weight by electrophoresis using a sodium dodecylsulphate polyacrylamide gel, and transferred to a nitrocellulose membrane (Western blot).”

[6] = TAA-exposed rats, 100 mg/kg/day orally for two weeks
[7] = TAA-exposed rats, 100 mg/kg/day orally for two weeks, listed as lanifibranor

SMILES: O=C(O)CCCc1cc2cc(Cl)ccc2n1S(=O)(=O)c1ccc2ncsc2c1 [Lanifibranor, 4-[1-(1,3-benzothiazol-6-ylsulfonyl)-5-chloroindol-2-yl]butanoic acid]
- VCAM-1 mRNA expression ([1]; vs vehicle (FIG. 6)): a trend
- E-Selectin mRNA ([1]; vs vehicle, P<0.05 (FIG. 6)): significant decrease
- ICAM-1 mRNA ([1]; vs vehicle, P<0.05 (FIG. 6)): significant decrease
- TIMP1 mRNA expression ([1]; vs vehicle, p<0.001 (FIG. 2)): significantly reduced
- collagen 1a1 mRNA expression ([1]; vs vehicle, p<0.005 (FIG. 1)): significant decrease
- α-SMA expression at mRNA level ([1]; vs vehicle, p<0.005 (FIG. 3a)): significantly reduced
- TIMP2 mRNA expression ([1]; vs vehicle, p<0.05 (FIG. 2)): significantly reduced
- IL-6 mRNA expression ([1]; vs vehicle, p<0.05 (FIG. 7)): significantly decreased
- AST protein content in plasma [2]: significantly decreased
- protein level of Von Willebrand factor ([3]; p<0.01 (FIG. 5)): significantly reduced
- α-SMA expression at protein level ([3]; p<0.05 (FIG. 3a)): significantly reduced
- protein level of Desmin ([3]; p<0.05 (FIG. 3b)): significantly reduced
- Ascites [4, 6]: 16%
- MAP (mean arterial pressure) [4, 6]: 84 ± 2 mmHg
- IHVR (intrahepatic resistance) [4, 6]: 0.53 ± 0.06 mmHg · min/mL
- PBF (portal blood flow) [4, 6]: 23.5 ± 2.1 mL/min
- PP (portal pressure) [4, 6]: 11.2 ± 0.5 mmHg
- IHVR (intrahepatic resistance) [4, 7]: 0.75±0.1 mmHg · min/mL
- PBF (portal blood flow) [4, 7]: no significant changes
- PP (portal pressure) [4, 7]: 11.2±0.5 mmHg
- systemic hemodynamics ([4]; cirrhotic rats administered with lanifibranor vs vehicle): No effects
- collagen deposition (PicroSirius Red, PSR, staining) [5]: 12.3%
- sinusoidal capillarization (sinusoidal fenestrae) ([5]; vs vehicle, p<0.05 (FIG. 4), electronic microscopy): significantly reduced
- histological decrease in collagen deposition compared to vehicle ([5]; PicroSirius Red staining): 32%
